Laboratory results: patent publication US20240279144A1, “CONTROL OF IODIDES IN ACETIC ACID PRODUCTION” (LyondellBasell Acetyls, LLC, priority 2023, published 2024)

Legend:
[1] = for solubility, bis(diphenylphosphino) series: acetonitrile or glacial acetic acid (GAA)
[2] = FTIR P═O stretching frequency in acetonitrile as a gauge of basicity; format: physicochemical; conditions: lower frequency = higher basicity
Procedure: FTIR analyses were carried out on a Nicolet 6700 FTIR spectrometer equipped with a 3 bounce zinc selenide (ZnSe) attenuated total reflectance (ATR) crystal assembly. 0.1 mL aliquots of solution were removed from samples via micro-syringe. The solution was then placed on the crystal and an FTIR spectrum was obtained.

[3] = Vapor-liquid-equilibrium (VLE) test: iodide measured in the condensed vapor phase (suppression of HI volatilization); format: physicochemical
[4] = pKb (basicity) of Group 15 oxides
[5] = additive 0.05 molar, 0.1M HI, 1.3M H2O (2 wt %), GAA, approximately 140° C.
[6] = additive 0.1 molar, 0.1M HI, 1.3M H2O (2 wt %), GAA, approximately 140° C.

c1ccc(P(CCCCP(c2ccccc2)c2ccccc2)c2ccccc2)cc1
solubility, bis(diphenylphosphino) series [1]: insoluble

c1ccc(P(CCCCCCP(c2ccccc2)c2ccccc2)c2ccccc2)cc1
solubility, bis(diphenylphosphino) series [1]: insoluble

O=P(CP(=O)(c1ccccc1)c1ccccc1)(c1ccccc1)c1ccccc1 [Bis-DPPMeO2, bis(diphenylphosphino)methane dioxide]
P═O, cm^−1 [2]: 1,197.7 cm^−1 | HI (ppm in vapor) [3, 5]: 7,889 ppm | HI (ppm in vapor) [3, 6]: 876 ppm

O=P(CCCCCP(=O)(c1ccccc1)c1ccccc1)(c1ccccc1)c1ccccc1 [Bis-DPPPeO2, bis(diphenylphosphino)pentane dioxide]
P═O, cm^−1 [2]: 1,178.2 cm^−1 | HI (ppm in vapor) [3, 5]: 5,392 ppm | HI (ppm in vapor) [3, 6]: 683 ppm

O=P(CCCP(=O)(c1ccccc1)c1ccccc1)(c1ccccc1)c1ccccc1 [Bis-DPPPrO2, bis(diphenylphosphino)propane dioxide]
P═O, cm^−1 [2]: 1,180.8 cm^−1 | HI (ppm in vapor) [3, 5]: 6,291 ppm | HI (ppm in vapor) [3, 6]: 421 ppm

O=P(CCCP(=O)(c1ccccc1)c1ccccc1)(c1ccccc1)c1ccccc1 [Bis-DPPPrO]
P═O, cm^−1 [2]: 1,180.0 cm^−1

O=P(CP(=O)(C1CCCCC1)C1CCCCC1)(C1CCCCC1)C1CCCCC1 [Bis-DiCyPMeO2]
P═O, cm^−1 [2]: 1,160.1 cm^−1

O=[As](c1ccccc1)(c1ccccc1)c1ccccc1 [Ph3AsO, triphenyl arsine oxide]
HI (ppm in vapor) ([3]; Table 5, additive 0.25 molar, 1:1 molar ratio of additive to HI): 1,132 ppm | effectiveness in suppressing volatilization of HI relative to the CMPO ([3]; equivalent molarity, Table 5 conditions): about 7 times | solubility in GAA upon addition of HI ([1]; HI added): soluble | solubility in GAA ([1]; without added HI): soluble | pKb [4]: 4.15

O=P(c1ccccc1)(c1ccccc1)c1ccccc1 [TPPO, triphenylphosphine oxide, reference compound]
P═O, cm^−1 [2]: 1,191.6 cm^−1
